Assay results published in BindingDB's records for doi:10.3109/14756366.2012.658786 (Yeungnam University, 2013).

Biological target: Fatty acid synthase (Gallus gallus, UniProt P12276)
Test: FAS Inhibitory Assay
Conditions: pH 7; 37 °C
Experimental: To each microtube (final volume: 100 μL), FAS was added (20-30 μg protein) in a buffer containing 100 mM potassium phosphate (pH 7.0), 2.5 mM dithiothreitol and 2.0 mM EDTA with or without test compounds. The mixtures were preincubated at 37°C for 60 min and the reaction was started by the addition of a substrate mixture containing 0.25 mM NADPH, 0.4 nmol of malonyl CoA and 0.02 μCi of [3H] acetyl CoA. Following incubation at 37°C for 10 min, the reaction was terminated with 60% HClO4. Fatty acids were extracted with 1 mL of hexane and incorporation of radioactivity into the fatty acids was assessed by scintillation counting [Na et al., Bioorg. Med. Chem. Lett., 16:4738-4742].

Sequence of Fatty acid synthase (P12276 whole entry): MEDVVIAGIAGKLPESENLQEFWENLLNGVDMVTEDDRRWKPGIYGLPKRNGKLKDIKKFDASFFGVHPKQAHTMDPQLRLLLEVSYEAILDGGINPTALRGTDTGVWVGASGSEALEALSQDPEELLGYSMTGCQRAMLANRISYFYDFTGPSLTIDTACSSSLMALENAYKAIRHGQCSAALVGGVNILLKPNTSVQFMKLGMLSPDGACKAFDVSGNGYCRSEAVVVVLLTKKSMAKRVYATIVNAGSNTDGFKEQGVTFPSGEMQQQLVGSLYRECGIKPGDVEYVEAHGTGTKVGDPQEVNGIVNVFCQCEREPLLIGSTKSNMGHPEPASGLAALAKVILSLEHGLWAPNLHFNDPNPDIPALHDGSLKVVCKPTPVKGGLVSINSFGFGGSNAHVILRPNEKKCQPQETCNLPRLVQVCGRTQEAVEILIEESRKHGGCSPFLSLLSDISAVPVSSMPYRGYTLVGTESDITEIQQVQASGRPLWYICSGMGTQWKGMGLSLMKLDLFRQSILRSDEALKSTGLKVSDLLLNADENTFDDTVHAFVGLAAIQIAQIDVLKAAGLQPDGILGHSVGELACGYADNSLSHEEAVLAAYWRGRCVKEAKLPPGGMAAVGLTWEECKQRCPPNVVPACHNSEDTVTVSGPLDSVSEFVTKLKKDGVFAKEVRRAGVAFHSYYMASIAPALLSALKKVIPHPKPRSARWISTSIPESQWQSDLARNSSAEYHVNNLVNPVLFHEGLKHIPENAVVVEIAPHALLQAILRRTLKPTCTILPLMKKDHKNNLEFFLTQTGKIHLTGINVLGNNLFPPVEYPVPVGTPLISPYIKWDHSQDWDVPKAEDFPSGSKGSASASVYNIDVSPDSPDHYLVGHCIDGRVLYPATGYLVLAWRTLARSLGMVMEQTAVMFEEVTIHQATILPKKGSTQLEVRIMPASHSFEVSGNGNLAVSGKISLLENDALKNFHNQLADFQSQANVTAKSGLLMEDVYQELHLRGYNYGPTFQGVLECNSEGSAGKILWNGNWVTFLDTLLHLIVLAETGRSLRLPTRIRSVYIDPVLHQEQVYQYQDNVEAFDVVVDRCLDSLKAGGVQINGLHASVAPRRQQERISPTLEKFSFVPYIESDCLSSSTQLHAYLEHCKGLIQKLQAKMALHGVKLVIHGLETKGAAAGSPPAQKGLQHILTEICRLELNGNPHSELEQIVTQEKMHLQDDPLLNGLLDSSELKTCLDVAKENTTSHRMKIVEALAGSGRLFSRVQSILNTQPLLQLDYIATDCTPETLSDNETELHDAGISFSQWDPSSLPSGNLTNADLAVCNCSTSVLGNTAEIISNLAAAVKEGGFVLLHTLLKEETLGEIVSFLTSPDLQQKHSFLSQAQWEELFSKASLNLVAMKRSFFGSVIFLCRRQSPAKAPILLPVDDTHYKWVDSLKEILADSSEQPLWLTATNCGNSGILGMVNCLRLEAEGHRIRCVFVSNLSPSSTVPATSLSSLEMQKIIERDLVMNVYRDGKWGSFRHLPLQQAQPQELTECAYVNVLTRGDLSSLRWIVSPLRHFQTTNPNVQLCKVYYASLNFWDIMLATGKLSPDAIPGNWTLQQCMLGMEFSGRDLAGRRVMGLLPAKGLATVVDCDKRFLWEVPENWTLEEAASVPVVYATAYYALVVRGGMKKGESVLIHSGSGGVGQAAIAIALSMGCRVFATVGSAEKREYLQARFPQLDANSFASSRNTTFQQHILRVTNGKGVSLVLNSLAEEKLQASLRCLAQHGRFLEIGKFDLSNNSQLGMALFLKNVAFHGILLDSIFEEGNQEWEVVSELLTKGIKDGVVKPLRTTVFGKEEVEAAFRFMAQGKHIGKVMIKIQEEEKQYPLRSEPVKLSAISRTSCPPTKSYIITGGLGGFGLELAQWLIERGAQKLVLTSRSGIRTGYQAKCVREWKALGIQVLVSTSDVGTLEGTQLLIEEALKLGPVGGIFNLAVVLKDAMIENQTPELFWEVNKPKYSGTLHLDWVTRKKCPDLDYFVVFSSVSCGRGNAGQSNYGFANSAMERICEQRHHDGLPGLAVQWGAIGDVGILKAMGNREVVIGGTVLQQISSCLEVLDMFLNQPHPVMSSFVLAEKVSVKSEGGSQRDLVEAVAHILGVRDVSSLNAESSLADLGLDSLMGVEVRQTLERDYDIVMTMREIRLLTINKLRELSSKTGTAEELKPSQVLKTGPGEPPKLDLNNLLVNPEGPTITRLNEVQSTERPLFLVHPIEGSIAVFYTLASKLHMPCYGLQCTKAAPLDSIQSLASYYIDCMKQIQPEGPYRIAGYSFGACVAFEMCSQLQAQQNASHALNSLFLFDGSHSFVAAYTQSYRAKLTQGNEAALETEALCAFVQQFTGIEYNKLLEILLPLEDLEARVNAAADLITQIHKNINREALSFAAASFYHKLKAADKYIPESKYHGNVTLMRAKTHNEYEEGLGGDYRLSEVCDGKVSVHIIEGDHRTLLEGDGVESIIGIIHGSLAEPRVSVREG

C/C=C/C/C=C/CCC(=O)[C@H]1O[C@H]1C(N)=O
IC50: 13 µM

O=c1cc(-c2ccc(O)c(O)c2)oc2cc(O)cc(O)c12 [2-(3,4-dihydroxyphenyl)-5,7-dihydroxy-4H-chromen-4-one]
IC50: 62.5 µM

CCCCCC/C=C\CCCCCCCCCc1cccc(O)c1C(=O)O [6-[10'(Z)-heptade-cenyljsalicylic acid]
IC50: 10.5 µM

CCCCCC/C=C\CCCCCCCc1cccc(O)c1C(=O)O [6-{8(Z)-pentadecenyl}salicylic acid]
IC50: 17.1 µM

CCCCC/C=C/C/C=C/CCCCCCCc1cccc(O)c1C(=O)O [Ginkgolic acid C17:2 (2)]
IC50: 9.2 µM
